Patent US5202338A, “Dihydroquinoline derivatives, pharmaceutical compositions and methods of use of dihydroquinoline derivatives as modulators of the arachidonic acid cascade” (priority 1990, dated 1993)
Where a name gives a salt, the structure may show the parent alone.

Key:
[1] = system: Wistar rats; test: Acute toxicity study and determination of LD50; type: in vivo
Protocol: (§1) The Example was carried out in Wistar rats (Lati, Budapest) of both sexes weighing 150-160 g each. Doses of L90 were measured by an analytical balance, for each animal and suspended in 2 ml of paraffine oil while mixing at 60° C. Suspension was then cooled to room temperature and administered through a gastric tube. Animals were fed with standard rat feed (Lati, Budapest) and received water ad libitum. They were kept at a room temperature of 23 to 25° C. The relative humidity of room air amounted to 50-70 percent. Three study groups of animals were formed.
(§2) The animals received a single dose of L90 amounting to 1 g/kg body weight.
(§3) The animals received a single dose of L90 amounting to 5 g/kg body weight.
(§4) The animals received a single dose of 2 ml of paraffine oil (control group).
(§5) Animals were carefully observed on 10 subsequent days, after treatment. On day 11, the animals were sacrificed in general anesthesia. Autopsy of all animals was performed followed by the macroscopic examination of all organs.

[2] = Acute toxicity study and determination of LD50; type: in vivo; settings: rat, in vivo; oral, Wistar rats of both sexes
Protocol: as §1, §2, §3, §4, §5

[3] = system: Erlich ascites tumor; test: Tumor-inhibiting effect on the Erlich ascites tumor; type: in vivo, mice
Protocol: A daily oral dose of 150 mg/kg of body-weight of the compound prepared in Example 1 was administered to LATI-inbred CFLP male mice weighing 20 to 22 g each for 5 days, then 2×10^6 of Erlich ascites tumour cells were implanted under sterile conditions. Thereafter, the drug-treatment was continued and an examination was carried out on the 16th day following the implantation. An 80% inhibition was observed on the 17th day. The percentage of inhabitation was determined as described by Zs. Pollak in the dissertation entitled "Development of a Radiosensitizing Antioxidant and Use Thereof in the Oncological Practice" pages 44 to 45 and 76 to 82, as cited above.

[4] = system: TXB2 formation in human leukocyte homogenate; test: TXB2 formation from arachidonic acid in human leukocyte homogenate (RIA); type: biochemical; settings: DMSO control 1.95 ± 0.31
Protocol: The transformation of arachidonic acid to thromboxane B2 and leukotriene B4 in a human leukocyte homogenate was measured by means of the method published by Tetason, J. E. et al., Brit. J. Pharmacol., 1988 94:528-529, as follows: Fresh blood, from donors who had not ingested aspirin or other drugs for at least 14 days previously, was collected, with EDTA (1.2 mgml^-1) as anticoagulant; erythrocytes were sedimented by addition of 2% methyl cellulose (7.5 ml 100^-1 blood) and incubation for 40 minutes at 37° C. The supernatant containing leukocytes and platelets was removed, diluted two fold with sodium phosphate-buffered saline (0.9% NaCl, pH 7.2, 20 mM phosphate) and centrifuged for 10 minutes at 150 g. The supernatant, containing platelets, was removed and the leukocyte pellet resuspended in 50 ml of ice-cold 0.82% NH4 Cl containing 5 mM KCl (brought to pH 7.4 with 4.4% NaHCO3). This procedure lysed any remaining erythrocytes during 10 minutes incubation on ice. The leukocyte suspension was then centrifuged again (10 minutes, 150 g) and the pellet resuspended in 25 ml sodium phosphate buffer (50 mM, pH 7.0) containing EDTA (1 mM). […]
DMSO was added. […] Reaction products, TXB2 and LTB4, were measured by specific radioimmunoassay (RIA) as published by Salmon, J. A. Prostaglandins, 1978 15: 383-397; and Salmon, J. A. et al., Prostaglandins, 1982, 24:225-235. […]

[5] = system: gastric mucosa; test: Protection of the gastric mucosa against ethanol; type: in vivo, rats; settings: anhydrous ethanol + 100 mg/kg by gastric tube; ethanol only 21±0.31%
Protocol: The protection of the gastric mucosa against the effect of ethanol was investigated. Ten CFY male rats weighing 200 to 220 g each were starved for 18 hours while allowing them to consume water ad libitum. Then, a dose of 50 or 100 mg/kg of body weight of the compound prepared in Example 1 was administered in such a way that the active agent had previously homogenized in an 1% aqueous methylcellulose solution for 1 minute. The substance was administered through a gastric tube. After 30 minutes, 1 ml of anhydrous ethanol each was orally given to the animals. Five minutes later the animals were decapitated under a general anaesthesia, their stomachs were removed, opened along the large curvature and washed with water. Thereafter the stomachs were stretched out and photographed. The alterations found on the gastric mucosa were observed by planimetry. The lesions were given as percentage of the whole surface.

[6] = system: cytochrome C and P 450; test: Cytochrome C and P450 activities in atherogenic-diet rats; type: in vivo; settings: atherosclerosis induced by atherogenic diet in rats
From the text: During model-experiments of atherosclerosis induced by atherogenic diet in rats, the pathologic increase of cythochrome C and P 450 enzyme activities is to be observed. This is disadvantageous because these enhanced enzyme activities induce tissular lipid peroxidation, involving all of its well known untoward consequences. As the first step of this chain reaction superoxyde - anion radical is formed from molecular oxygen. Laitar however initiate further few radical reactions.

[7] = system: hyperoxia (95% oxygen and 5% CO2); test: Hyperoxia-inhibiting effect; type: in vivo, rats
Protocol: CFY rats with an average body weight of 250 g each, belonging to both sexes were kept in an atmosphere of 95% oxygen and 5% CO2. Three treatment groups were formed.
Group 2 (n=25): Hyperoxia was induced as described for Group 1, however, 20 mg/kg body weight/day i.v. Dexamethasone (steroid hormone preparation) was administered during the hyperoxia period. […] Autopsy and histological examinations were performed on the animals died and on the animals sacrificed on the 35th day.
Group 3 (n=25): Hyperoxia was induced as in the Groups mentioned above, but during the period of hyperoxia 65 mg/kg body weight of the compound according to Example 4 was administered i.v. The rate of death amounted to 4% (1 animal).

[8] = system: extrinsic bronchial asthma; test: Investigation of MTDQ in vivo in steroid-dependent asthma patients; set-up: species or system human
Protocol: Four women and two men (with an average age of 41 years); between 17 and 56 years participated in this study, who suffered from extrinsic bronchial asthma, and had earlier been treated with at least 20 mg/day of prednisolone (11,17,21-trihydroxypregn-4-ene-3,20-dione) or with an equivalent steroidal hormone since 2 to 15 years of age. During the experimental period, the patients were kept on the treatment commonly used for bronchial asthma, except steroidal hormones.
On admission, their respiratory function characteristics were as follows:
Their sputum became more dilute and easy to eliminate. On auscultation, a soft vesicular respiration was again observed over their lungs. The X-ray picture of the lungs was in agreement with the clinical improvement.
On the fifteenth day of treatment, the respiratory functions were as follows:
The experiment described in Example 10 was repeated, except that daily 300 mg of allopurinol (Milurit®, EGIS Pharmaceutical Works) were daily administered simultaneously with the start of the MTDQ administration. […] In the case of a prolonged treatment, the daily amount of MTDQ could be decreased from 2500 mg to 1000-1200 mg by using this combination.

Compound: CC(=O)C(c1ccc2c(c1)C(C)=CC(C)(C)N2)c1ccc2c(c1)C(C)=CC(C)(C)N2 [Example 1, 6,6'-acetylmethine-bis(2,2,4-trimethyl-1,2-dihydroquinoline)]
- Survival and observations ([1]; single oral dose 1 g/kg, day 11): all rats were alive
- Mortality ([1]; single oral dose 5 g/kg, n=8, 10 days of observation): Two rats belonging to Group 2 died on day 8
- LD50 at 240 h [2]: > 5000 mg/kg
- Tumor inhibition ([3]; 150 mg/kg oral daily, CFLP male mice, 17th day): 80%
- Ascites ml. ([3]; 150 mg/kg, control 15.06 + 2.85): 3.95 + 0.62 ml
- number of cells ([3]; 150 mg/kg, control 96.5 × 10^7 /ml): 7.33e+07 mL⁻¹
- TXB2 ([4]; 20/μM compound): 0.68 ± 0.14
- TXB2 ([4]; 100/μM compound): 0.53 ± 0.08
- Gastric mucosa lesions as percentage of the whole surface [5]: 4.2±0.51%

Compound: CC1(C)C=C(CS(=O)(=O)O)c2ccccc2N1 [2,2-dimethyl-4-methane-sulfonic acid salt-1,2-dihydroquinoline]
- Normalization of increased Cytochrome C and P450 activities [6]: did not exert this effect either

Compound: CC(=O)C(c1ccc2c(c1)C(CS(=O)(=O)O)=CC(C)(C)N2)c1ccc2c(c1)C(CS(=O)(=O)O)=CC(C)(C)N2 [Example 4, sodium salt of 6,6'-acetylmethine-bis(2,2-dimethyl-1,2-dihydroquinoline-4-methanesulfonicacid)]
- Rate of death ([7]; 65 mg/kg i.v. during hyperoxia, untreated 50% died): 4%
- Pathological lesions at autopsy and histology ([7]; 65 mg/kg i.v., animals sacrificed on 35th day): no pathological lesions were detected

Compound: CC1=CC(C)(C)Nc2ccc(Cc3ccc4c(c3)C(C)=CC(C)(C)N4)cc21 [MTDQ, 6,6'-methylene-bis(2,2,4-trimethyl-1,2-dihydroquinoline)]
- Omission of steroidal hormone ([8]; MTDQ combined with 300 mg allopurinol daily): the steroidal hormone could immediately be omitted
- Daily amount of MTDQ needed in prolonged treatment ([8]; combined with 300 mg allopurinol daily, decreased from 2500 mg): 1000 to 1200 mg
- Partial oxygen pressure in the arterial blood ([8]; fifteenth day of treatment, MTDQ 25 mg/kg orally daily, steroid stopped on day 4): 10.9±0.45 kPa
- Forced expiratory volume ([8]; fifteenth day of treatment, MTDQ 25 mg/kg orally daily, normal value 2.5 to 2.8): 2.06 ± 0.8 L
- Forced vital capacity ([8]; fifteenth day of treatment, MTDQ 25 mg/kg orally daily, normal value 3.5 to 4): 3.78 ± 0.33 L
- Clinical improvement ([8]; fifth day, MTDQ 25 mg/kg orally daily): the patients became attack-free

Compound: CC1=CC(C)(C)Nc2ccccc21 [2,2,4-trimethyl-1,2-dihydroquinoline]
- Normalization of increased Cytochrome C and P450 activities [6]: did not exert this effect either

Compound: C[C@@H]1C[C@H]2[C@@H]3CCC4=CC(=O)C=C[C@]4(C)[C@@]3(F)[C@@H](O)C[C@]2(C)[C@@]1(O)C(=O)CO [Dexamethasone]
- Rate of survival ([7]; 20 mg/kg/day i.v. during hyperoxia): did not improve
- PGF1C and TXB2 concentrations ([7]; 20 mg/kg/day i.v., compared to physiological parameters): significantly lower
- Pathological lesions at autopsy and histology ([7]; 20 mg/kg/day i.v., compared with Group 1): number and severity of the pathological lesions were found less than in Group 1

Compound: O=C1O[C@H]([C@@H](O)CO)C(O)=C1O [Vitamin C]
- Normalization of increased Cytochrome C and P450 activities [6]: did not exert this effects

Compound: NC(=O)c1nc[nH]c1N [4-amino-5-imidozolcarboxidamide]
- Normalization of increased Cytochrome C and P450 activities [6]: did not exert this effects

Compound: Oc1cc(O)c2c(c1)O[C@H](c1ccc(O)c(O)c1)[C@@H](O)C2 [(+) --Cyanidol]
- Normalization of increased Cytochrome C and P450 activities [6]: did not exert this effects

Compound: Vitamin A
- Normalization of increased Cytochrome C and P450 activities [6]: did not exert this effects

Compound: CC(C)(S)[C@@H](N)C(=O)O [D-Pencillamino]
- Normalization of increased Cytochrome C and P450 activities [6]: did not exert this effects
